Where a name gives a salt, the structure may show the parent alone.
target: human Kv1.5 channels (Homo sapiens (Human), UniProt P22460); test: Measurement of human Kv1.5 channel current by whole-cell patch clamp method (human Kv1.5-expressing CHO-K1 cell line), Pharmacological Test 1; format: cell-based; conditions: First Invention, Table 2, human Kv1.5-expressing CHO-K1 cells, step end current at +40 mV
Procedure: Pharmacological Test 1 (1) Production of Human Kv1.5-Expressing CHO-K1 Cell Lines
CHO-K1 cell lines stably expressing human Kv1.5 channels were prepared in the following manner.
Full-length human Kv1.5 cDNA was cloned from a human heart cDNA library (produced by Stratagene). The obtained human Kv1.5 sequence corresponds to the sequence described in FASEB J. 5, 331-337 (1991).
The obtained human Kv1.5 cDNA was inserted into a plasmid encoding a CMV promoter and a G418 resistance marker to produce a Kv1.5 expression vector. The human Kv1.5 expression vector was transfected into CHO-K1 cells by the lipofectamine method. After culturing the cells in an F-12 medium (produced by Invitrogen Corp.) containing 10% FBS (produced by Invitrogen Corp.) for 3 or 4 days, the medium was replaced with a FBS-containing F-12 medium that included 1,000 μg/ml of G418 (produced by Invitrogen Corp.), and single colonies were isolated. The amount of Kv1.5 channel expression in the single colonies was quantified at the mRNA level by RT-PCR and then quantified at the protein level by western blotting. Finally, the expressed current was analyzed by patch clamp method. […]
Depolarizing stimulation pulses were applied and ionic current was recorded by using a patch clamp amplifier (EPC-7 or EPC-7 PLUS, produced by HEKA) and a personal computer (manufactured by IBM Corp.) in which software for data acquisition and analysis of ion channel current (PULSE 8.77, produced by HEKA) was installed. The current was measured in the whole-cell configuration of the patch-clamp technique. […] Subsequently, the series resistance (Rs) between the pipette and the interior of the cell was measured and corrected. […]
While the membrane potential was holded at −80 mV, depolarizing pulses (−80 mV for 0.05 seconds→□□+40 mV for 0.2 seconds →□□−40 mV for 0.2 seconds→□□−80 mV for 0.05 seconds) were applied at a stimulation frequency of 1 Hz to measure Kv1.5 channel current. […] The current obtained during the pulse application was recorded as a current in the absence of the test compounds. […]

Chain of human Kv1.5 channels (P22460 whole entry): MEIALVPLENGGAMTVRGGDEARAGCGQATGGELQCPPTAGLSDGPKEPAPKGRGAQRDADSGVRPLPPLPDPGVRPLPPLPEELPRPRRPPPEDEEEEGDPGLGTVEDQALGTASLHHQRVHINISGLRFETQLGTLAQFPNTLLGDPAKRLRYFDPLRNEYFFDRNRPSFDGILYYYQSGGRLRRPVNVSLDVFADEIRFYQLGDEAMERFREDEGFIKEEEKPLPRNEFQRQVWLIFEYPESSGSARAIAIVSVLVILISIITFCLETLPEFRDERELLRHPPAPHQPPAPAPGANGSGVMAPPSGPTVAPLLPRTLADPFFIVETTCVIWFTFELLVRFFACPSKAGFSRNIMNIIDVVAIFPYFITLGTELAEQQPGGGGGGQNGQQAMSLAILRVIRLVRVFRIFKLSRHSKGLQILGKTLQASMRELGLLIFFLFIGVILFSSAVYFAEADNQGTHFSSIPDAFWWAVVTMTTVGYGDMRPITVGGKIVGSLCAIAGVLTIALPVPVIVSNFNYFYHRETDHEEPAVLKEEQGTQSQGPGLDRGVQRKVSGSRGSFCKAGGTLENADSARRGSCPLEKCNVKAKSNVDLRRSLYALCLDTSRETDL

Row | SMILES | IC50 [nM]
1 | CCN1C(=O)C(C)(C)C(=O)N(C)c2cc(CN(CCn3cc(C)c4occc4c3=O)Cc3cccnc3COC)ccc21 [Example 318, 1-Ethyl-7-({N-(2-methoxymethylpyridin-3-ylmethyl)-N-[2-(7-methyl-4-oxo-4H-furo[3,2-c]pyridin-5-yl)ethyl]amino}methyl)-3,3,5-trimethyl-1,5-dihydrobenzo[b][1,4]diazepine-2,4-dione] | 2900
2 | CCN1C(=O)C(C)(C)C(=O)N(C)c2cc(CN(CCc3cccnc3)C(=O)Cc3cn(C)c4ccccc34)ccc21 [Example 330, N-(1-Ethyl-3,3,5-trimethyl-2,4-dioxo-2,3,4,5-tetrahydro-1H-benzo[b][1,4]diazepin-7-ylmethyl)-2-(1-methyl-1H-indol-3-yl)-N-(2-pyridin-3-ylethyl)acetamide hydrochloride] | 860
3 | CCN1C(=O)C(C)(C)C(=O)N(C)c2cc(CN(CCn3ccc4oc(C)cc4c3=O)Cc3cccnc3COC)ccc21 [Example 317, 1-Ethyl-7-({N-(2-methoxymethylpyridin-3-ylmethyl)-N-[2-(2-methyl-4-oxo-4H-furo[3,2-c]pyridin-5-yl)ethyl]amino}methyl)-3,3,5-trimethyl-1,5-dihydrobenzo[b][1,4]diazepine-2,4-dione] | 630

From patent publication US9212187B2, “Nitrogen-containing compounds and pharmaceutical compositions thereof for the treatment of atrial fibrillation” (OTSUKA PHARMACEUTICAL CO., LTD., priority 2009, dated 2015)
